The conditions of this data set: solid, 1X ICH Option 1 light exposure, Atlas Suntest XLS+ light box, 320 nm cutoff filter.
Protocol: A photochemical comparative study of Form XLI, Form XXV, and Form IV was performed.
Approximately 50 mg of each form was placed in 20 ml glass vials. The sample depth was <3 mm. The vials were covered with a quartz glass dish and placed in an Atlas Suntest XLS+ light box equipped with a 320 nm cutoff filter. […] The samples were exposed to artificial light equivalent to the International Conference on Harmonization (ICH) Guidelines for Photostability Testing of New Drug Substances, Option 1 exposure.
As for `CNC(=O)c1ccccc1Sc1ccc2c(/C=C/c3ccccn3)n[nH]c2c1` [Form XLI, 6-[2-(methylcarbamoyl)phenylsulfanyl]-3-E-[2-(pyridin-2-yl)ethenyl]indazole], the “Potency (wt/wt %) after light exposure” value worked out at 89%.

Take `CNC(=O)c1ccccc1Sc1ccc2c(/C=C/c3ccccn3)n[nH]c2c1` [Form XXV, 6-[2-(methylcarbamoyl)phenylsulfanyl]-3-E-[2-(pyridin-2-yl)ethenyl]indazole]: the “Potency (wt/wt %) after light exposure” value is listed as 100%.

As to `CNC(=O)c1ccccc1Sc1ccc2c(/C=C/c3ccccn3)n[nH]c2c1` [Form IV, 6-[2-(methylcarbamoyl)phenylsulfanyl]-3-E-[2-(pyridin-2-yl)ethenyl]indazole], the “Potency (wt/wt %) after light exposure” value was 34%.

The record behind these values is patent US8791140B2, “Crystalline forms of 6-[2-(methylcarbamoyl)phenylsulfanyl]-3-E-[2-(pyridin-2-yl)ethenyondazole suitable for the treatment of abnormal cell growth in mammals” (Pfizer Inc., priority 2007, dated 2014).
